The source of these data is patent EP4541796A1, “EXATECAN DERIVATIVES AND USE THEREOF” (Hangzhou Adcoris Biopharma Co., Ltd, priority 2022, dated 2024).

Each structure is given as a SMILES string. Where two headings read alike, the source gives them in different places. Bounds are passed on as bounds.

Assay [1] concerns esophageal cancer cells OE33. The experiment in a line: In vitro inhibitory activity of compounds (small molecule toxins), CCK-8 cell growth assay. It is filed as cell-based. The settings on record: Homo sapiens. Here is the method:
(§1) Human esophageal cancer cells OE33, and human breast adenocarcinoma cells SK-BR-3 were cultured in RPMI1640 (Cellmax) containing 10% fetal bovine serum (Cellmax), respectively. Cells in the exponential growth phase were diluted to a concentration of 1×10^5cells/mL by culture medium and added to 96-well cell culture plates at 100µL per well, then incubated overnight in a 37°C incubator with 5% CO2. On the following day, the small molecules were diluted with culture medium to 10,000 nM, 2,000 nM, 400 nM, 80 nM, 16 nM, 3.2 nM, 0.64 nM, 0.13 nM, respectively, and the diluted compounds were added to 96-well cell culture plates at 2 µL per well, with three replicate wells set-up for each concentration, and for the negative and blank control groups, in which the compounds had not been added, 2 µL of dilution was added per well. After the addition, the plates were returned to the 37°C incubator with 5% CO2 to continue incubation for 72 h. After incubation, the cell culture plates were removed, and the culture medium was aspirated using a pipette. Then, 100µL of culture medium containing 10% CCK-8 was added to each well, and the plates were incubated at 37°C for 3 hours. After incubation, the plates were removed, kept in the dark, and placed in ELISAplate. Absorbance was measured at 630nm as the reference wavelength and 450nm as the test wavelength. The IC50 values (Tables 1-3) were calculated using the four-parameter logistic regression method in GraphPad, based on the absorbance values. DNA topoisomerase I inhibitor Dxd was used as positive control drug.

For assay [2], the system named is breast adenocarcinoma cells SK-BR-3. The assay is described as above. It is filed as cell-based. Conditions: Homo sapiens; Inhibitory activity against SK-BR-3; small molecules, 72 h incubation. Here is the method: as §1
The mark [3] stands for this setting: Inhibitory activity against OE33, small molecules, 72 h incubation, read-out: IC50/nM.
The mark [4] stands for this setting: OE33 cells, read-out: IC50 values for inhibiting the growth of esophageal cancer cells.

Take `CC[C@@]1(O)C(=O)OCc2c1cc1n(c2=O)Cc2c-1nc1cc(F)c(C)c3c1c2[C@@H](NC(=O)NN)CC3` [Compound 1, Exatecan-N-aminourea]: the IC50 in assay [1] (setting [3]) and in assay [2] was 50 to 100 nM in each case.

Take `CC[C@@]1(O)C(=O)OCc2c1cc1n(c2=O)Cc2c-1nc1cc(F)c(C)c3c1c2[C@@H](NC(=O)N(C)N)CC3` [Compound 2, Exatecan-N-methyl-N-aminourea]: the results for the IC50 in assay [1] (setting [3]) and in assay [1] (setting [4]) were less than 50 nM and less than 10 nM, respectively.

Regarding `CC[C@@]1(O)C(=O)OCc2c1cc1n(c2=O)Cc2c-1nc1cc(F)c(C)c3c1c2[C@@H](NC(=O)N(C)NC)CC3` [Compound 3, Exatecan-N',N-dimethylaminourea], the IC50 in assay [1] (setting [3]) is less than 50 nM; in assay [1] (setting [4]), less than 10 nM; in assay [2], less than 50 nM.

In the case of `CC[C@@]1(O)C(=O)OCc2c1cc1n(c2=O)Cc2c-1nc1cc(F)c(C)c3c1c2[C@@H](NC(=O)C(=O)NN)CC3` [Compound 4, Exatecan-N'-amino oxalyldiamine], the IC50 in assay [1] (setting [3]) and in assay [2] was 50 to 100 nM each time.

Turning to `CC[C@@]1(O)C(=O)OCc2c1cc1n(c2=O)Cc2c-1nc1cc(F)c(C)c3c1c2[C@@H](NC(=O)C(=O)N(C)N)CC3` [Compound 5, Exatecan N'-amino-N-methyloxalyldiamine], the IC50 in assay [1] (setting [3]) was 50 to 100 nM; in assay [2] it was less than 50 nM.

Take `CC[C@@]1(O)C(=O)OCc2c1cc1n(c2=O)Cc2c-1nc1cc(F)c(C)c3c1c2[C@@H](NC(=O)CNO)CC3` [Compound 6, 2-hydroxyaminoacetyl exatecan]: the IC50 in assay [1] (setting [3]) lay within 50 to 100 nM.

As for `CC[C@@]1(O)C(=O)OCc2c1cc1n(c2=O)Cc2c-1nc1cc(F)c(C)c3c1c2[C@@H](NC(=O)CNOC)CC3` [Compound 7, 2-methoxyaminoacetyl exatecan], the IC50 in assay [1] (setting [3]) was less than 50 nM; in assay [1] (setting [4]), less than 10 nM.

For `CC[C@@]1(O)C(=O)OCc2c1cc1n(c2=O)Cc2c-1nc1cc(F)c(C)c3c1c2[C@@H](NC(=O)CONC)CC3` [Compound 8, 2-methylaminooxyacetyl exatecan], the IC50 in assay [1] (setting [3]) is less than 50 nM; in assay [1] (setting [4]), less than 10 nM; in assay [2], less than 50 nM.

With `CC[C@@]1(O)C(=O)OCc2c1cc1n(c2=O)Cc2c-1nc1cc(F)c(C)c3c1c2[C@@H](NC(=O)CN(C)N)CC3` [Compound 9, 2-N-methyl-N-aminoacetyl exatecan], the figures for the IC50 in assay [1] (setting [3]) and in assay [1] (setting [4]) were less than 50 nM and less than 10 nM, respectively.

On to `CC[C@@]1(O)C(=O)OCc2c1cc1n(c2=O)Cc2c-1nc1cc(F)c(C)c3c1c2[C@@H](NC(=O)CN(C)NC)CC3` [Compound 10, 2-N-methyl-N-methylaminoacetyl exatecan], for which, in assay [1] (setting [3]), the IC50 lay in the range of 50 to 100 nM.

On to `CC[C@@]1(O)C(=O)OCc2c1cc1n(c2=O)Cc2c-1nc1cc(F)c(C)c3c1c2[C@@H](NC(=O)CN(C)O)CC3` [Compound 11, 2-N-methylhydroxyaminoacetyl exatecan], for which the IC50 in assay [1] (setting [3]) was in the range of 50 to 100 nM.

As to `CCONCC(=O)N[C@H]1CCc2c(C)c(F)cc3nc4c(c1c23)Cn1c-4cc2c(c1=O)COC(=O)[C@]2(O)CC` [Compound 12, 2-ethoxyaminoacetyl exatecan], the IC50 in assay [1] (setting [3]) lay in the range of 50 to 100 nM.

In the case of `CC[C@@]1(O)C(=O)OCc2c1cc1n(c2=O)Cc2c-1nc1cc(F)c(C)c3c1c2[C@@H](NC(=O)C1(N)COC1)CC3` [Compound 13, 3-aminooxetane-3-acetyl exatecan], the values for the IC50 in assay [1] (setting [3]), in assay [1] (setting [4]) and in assay [2] were less than 50 nM, less than 10 nM and less than 50 nM, respectively.

As to `CC[C@@]1(O)C(=O)OCc2c1cc1n(c2=O)Cc2c-1nc1cc(F)c(C)c3c1c2[C@@H](NC(=O)CO)CC3` [Dxd, reference compound], the IC50 in assay [1] (setting [3]) and in assay [2] was less than 50 nM throughout.
